{
  "source": "patent US20190117574A1",
  "about": "“SURFACE-MODIFIED MICROSPHERE COMPOSITION, APPLICATION OF THE SAME, AND METHOD OF PREPARING THE SAME” (INSTITUTE OF NUCLEAR ENERGY RESEARCH, ATOMIC ENERGY …, priority 2017, published 2019)",
  "tested_on": "mice with FCA-induced arthritis",
  "assay": "Treatment of mice with FCA-induced arthritis: ankle joint diameter",
  "assay_type": "in vivo, mice (C57BL/6)",
  "details": "10 mg/kg/ml, subdermal injection around right tibiotarsal joint on day 21 after FCA, FIG. 8",
  "procedure": "Animal Model Created with Arthritis Induced by Freund's Complete Adjuvant (FCA) 24 male mice (C57BL/6, purchased from the National Laboratory Animal Center, Taipei, Taiwan) weighing 20-25 g (8 weeks old) are provided. The mice are each given a subdermal injection of 0.1 ml of FCA at the tibiotarsal joint of the right hind leg and 0.05 ml of FCA on the subplantar side of the right hind paw to induce the development of arthritis. Afterward, thermal images are taken of the mice with a thermal imaging camera on day 0, day 3, and day 14 after injected with FCA, respectively. The diameters of ankle joints of left and right hind legs of the mice are measured with a vernier caliper are surveyed and recorded for 2 or 3 days. The mice with FCA-induced arthritis are administered with a neutrophil elastase 680 FAST probe through trail veins on day 21 and observed with IVIS (non-invasion in vivo imaging system) to confirm whether neutrophil elastase is produced at the location where FCA is injected.\nThe animal model created with FCA-induced arthritis is described above. 24 mice which conform to the animal model created with FCA-induced arthritis are provided. […]\nUpon completion of the subdermal injection of the reagents into the four groups of mice, the diameters of left and right ankle joints and body weight of the mice are measured with a vernier caliper and recorded for 2 or 3 days.",
  "data": [
    {"smiles": "O=C(O)Cc1ccccc1Nc1c(Cl)cccc1Cl", "note": "[free diclofenac sodium, diclofenac sodium]", "values": [
      {"measurement": "reduction of swelling of ankles (ankle joint diameter) compared with saline", "value": "more effective than saline in reducing the swelling of the mice's ankles"}
    ]}
  ]
}
